In the NIST ThermoML archive (doi:10.1016/j.tca.2007.04.007):

Assay: molar heat capacity at constant pressure
Conditions: 101.33 kPa, Crystal, Large sample (1 g) DSC

C[C@@H]1CC[C@H]2[C@@H](C)C(=O)O[C@@H]3O[C@@]4(C)CC[C@@H]1[C@]32OO4 [artemisinin]
Conditions | molar heat capacity at constant pressure [J/K/mol]
80.88 K | 106.29
84.39 K | 107.4
87.31 K | 111.29
90.28 K | 115.11
93.15 K | 118.77
96.08 K | 122.29
99.06 K | 126.22
101.96 K | 129.96
104.91 K | 133.57
107.91 K | 137.36
110.85 K | 141.04
113.72 K | 144.58
116.65 K | 147.72
119.63 K | 151.4
122.57 K | 154.67
125.44 K | 158.04
128.38 K | 161.18
131.37 K | 164.32
134.31 K | 167.29
137.21 K | 170.2
140.06 K | 173.58
142.85 K | 175.98
145.7 K | 178.74
148.61 K | 181.39
151.48 K | 184.15
154.31 K | 188.26
157.09 K | 189.51
159.85 K | 190.78
162.66 K | 193.14
165.54 K | 194.65
168.38 K | 196.91
171.2 K | 197.84
173.98 K | 199.03
176.74 K | 201.03
179.47 K | 203.22
182.17 K | 204.81
184.93 K | 207.17
187.75 K | 209.02
190.54 K | 210.2
193.3 K | 211.69
196.04 K | 214.53
198.78 K | 218.09
201.49 K | 234.61
204.35 K | 248.75
207.26 K | 254.52
210.15 K | 259.16
213.03 K | 263.67
215.98 K | 268.33
218.98 K | 272.61
221.97 K | 277.47
224.93 K | 283.14
227.86 K | 300.11
230.9 K | 305.21
234.15 K | 304.08
237.2 K | 300.49
240.2 K | 312.96
243.25 K | 303.71
246.2 K | 290.19
249.15 K | 291.35
252.08 K | 292.72
254.99 K | 294.78
257.88 K | 295.87
260.75 K | 297.43
263.6 K | 299.57
266.43 K | 301.66
269.3 K | 304.16
272.21 K | 307.87
275.11 K | 309.22
278.48 K | 312.58
282.32 K | 315.57
286.12 K | 318.4
289.88 K | 323.79
293.71 K | 327.62
297.59 K | 331.62
301.45 K | 336.33
305.28 K | 339.95
309.08 K | 344.57
312.86 K | 351.73
316.64 K | 334.75
320.44 K | 337.71
324.16 K | 338.79
327.84 K | 344.42
331.58 K | 356.39
335.37 K | 360.69
339.11 K | 368.06
342.41 K | 376.18
345.26 K | 376.26
348.11 K | 388.36
350.96 K | 394.39
353.85 K | 397.54
356.81 K | 403.86
359.88 K | 413.08
363.03 K | 429.5
